This data set in a line: plasma trough level of itraconazole required for clinical benefit, and side effects of high doses, in humans with cancer. In kind it is in vivo. The procedure:
In particular, the minimum plasma trough level after 4 weeks of therapy required to have a clinically significant effect was at least 1000 ng/ml. […] These side effects associated with these high doses of itraconazole can be effectively managed by giving a selective mineralocorticoid antagonist, such as eplerenone. Accordingly, in some embodiments, the method further comprises administering eplerenone or other mineralocorticoid inhibitor.

A value given as a limit tells only on which side of the number the result lay.

The results in this text go back to patent US20190365743A1, “HEDGEHOG PATHWAY INHIBITION FOR TREATMENT OF HIGH-RISK BASAL CELL CARCINOMA OR HIGH-RISK BASAL CELL CARCINOMA NEVUS SYNDROME” (HEDGEPATH PHARMACEUTICALS, INC., priority 2018, published 2019).

`CCC(C)n1ncn(-c2ccc(N3CCN(c4ccc(OCC5COC(Cn6cncn6)(c6ccc(Cl)cc6Cl)O5)cc4)CC3)cc2)c1=O` (centres unmarked) [itraconazole]: where the note is “high doses giving plasma trough of at least 1000 ng/ml”, the “side-effects peculiar to high doses” value was “hypertension, peripheral edema, and hypokalemia”. In addition, the concentration at 4 weeks (human, plasma, after 4 weeks of therapy, humans with cancer, read-out: minimum plasma trough level required to have a clinically significant effect) was at least 1000 ng/mL.
